Experimental data as given in US11076595B2, “1-(n,n-disubstituted carbamoyl) 4-(substituted sulfonyl)triazolin-5-one derivative, 4-(n,n-disubstituted carbamoyl) 1-(substituted sulfonyl)triazolin-5-one derivative, and herbicide containing said derivative as active ingredient” (HOKKO CHEMICAL INDUSTRY CO., LTD., priority 2017, dated 2021).

Columns and labels:
Assay type in all cases: in vivo
Echinochloa crus-galli [1] = experiment: Test Example 11: herbicidal effect test by soil treatment in paddy field; details: 120 g/10a active ingredient, 14 days after treatment
Outline: (§1)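 Pre-emergence paddy test, 120 g a.i./10 are, emulsifiable concentrate diluted in water and added dropwise to ~3 cm flood water right after sowing (30 seeds/species, 0–1 cm depth, fertilized puddled soil). Greenhouse; 2 replicates; dry-weight suppression (%) vs untreated, day 14.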

Lindernia pyxidaria [2] = experiment: as above; details: 120 g/10a active ingredient, 14 days after treatment
Outline: as §1

Monochoria vaginalis [3] = experiment: as above; details: 120 g/10a active ingredient, 14 days after treatment
Outline: as §1

Scirpus juncoides [4] = experiment: as above; details: 120 g/10a active ingredient, 14 days after treatment
Outline: as §1

Echinochloa crus-galli [5] = experiment: Test Example 12: herbicidal effect test by treatment during growing period in paddy field; details: 120 g/10a; treatment seven days after sowing in flooded paddy pot; assessed 14 days after treatment
Outline: (§2)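 Seeds (30 per species) are sown shallowly into fertilized, puddled paddy soil kept under ~3 cm of water in a greenhouse. One week later, compound formulated as an emulsifiable concentrate is applied dropwise to the water at 120 g a.i./10 are. After 14 days, dry weights give percent suppression against untreated controls.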

Lindernia pyxidaria [6] = experiment: as above; details: 120 g/10a; treatment seven days after sowing in flooded paddy pot; assessed 14 days after treatment
Outline: as §2

Monochoria vaginalis [7] = experiment: as above; details: 120 g/10a; treatment seven days after sowing in flooded paddy pot; assessed 14 days after treatment
Outline: as §2

Scirpus juncoides [8] = experiment: as above; details: 120 g/10a; treatment seven days after sowing in flooded paddy pot; assessed 14 days after treatment
Outline: as §2

Amaranthus viridis [9] = experiment: Test Example 13: herbicidal effect test by soil treatment in upland field; details: 120 g/10a, 14 days after treatment
Outline: (§3)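 Pre-emergence soil spray, 1 d post-sowing; emulsifiable concentrate in water, 100 L/10 are, 120 g a.i./10 are. Pots 36 cm^2, alluvial soil, 20 seeds/species in top 1 cm. n=2; read 14 d; suppression % = (1 − treated/untreated mean dry weight) × 100.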

Chenopodium album [10] = experiment: as above; details: 120 g/10a, 14 days after treatment
Outline: as §3

Echinochloa crus-galli [11] = experiment: as above; details: 120 g/10a, 14 days after treatment
Outline: as §3

crabgrass [12] = experiment: as above; details: 120 g/10a, 14 days after treatment
Outline: as §3

Chenopodium album [13] = experiment: Test Example 14: herbicidal effect test by foliage treatment in upland field; details: 7 days after sowing, 120 g/10a, 14 days after treatment
Outline: (§4)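 Dose: 120 g a.i. per 10 are, sprayed in 100 L water per 10 are onto pots seven days post-sowing in alluvial soil. After 14 days, weed dry weight relative to untreated plots gave suppression rate (%); duplicate plots per concentration.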

crabgrass [14] = experiment: as above; details: 7 days after sowing, 120 g/10a, 14 days after treatment
Outline: as §4

Amaranthus viridis [15] = experiment: as above; details: 7 days after sowing, 120 g/10a, 14 days after treatment
Outline: as §4

Echinochloa crus-galli [16] = experiment: as above; details: 7 days after sowing, 120 g/10a, 14 days after treatment
Outline: as §4

SMILES | Weed suppression rate (%) Echinochloa crus-galli (Echinochloa crus-galli [1]) | Weed suppression rate (%) Lindemia pyxidaria (Lindernia pyxidaria [2]) | Weed suppression rate (%) Monochoria vaginalis (Monochoria vaginalis [3]) | Weed suppression rate (%) Scirpus juncoides (Scirpus juncoides [4]) | Weed suppression rate (%) Echinochloa crus-galli (Echinochloa crus-galli [5]) | Weed suppression rate (%) Lindemia pyxidaria (Lindernia pyxidaria [6]) | Weed suppression rate (%) Monochoria vaginalis (Monochoria vaginalis [7]) | Weed suppression rate (%) Scirpus juncoides (Scirpus juncoides [8]) | herbicidal effect, Amaranthus viridis (Amaranthus viridis [9]) | herbicidal effect, Chenopodium album (Chenopodium album [10]) | herbicidal effect, Echinochloa crus-galli (Echinochloa crus-galli [11]) | herbicidal effect, Crabgrass (crabgrass [12]) | herbicidal effect, Chenopodium album (Chenopodium album [13]) | herbicidal effect, Crabgrass (crabgrass [14]) | herbicidal effect, Amaranthus viridis (Amaranthus viridis [15]) | herbicidal effect, Echinochloa crus-galli (Echinochloa crus-galli [16])
CC(C)N(C(=O)n1cnn(S(C)(=O)=O)c1=O)c1ccc(Cl)cn1 [Compound 11-38] | 100% | 80% | 70% | 70% | 100% | 90% | 80% | 90% | 0% | 40% | 90% | 90% | 0% | 90% | 0% | 90%
CCS(=O)(=O)n1ncn(C(=O)N(c2ccc(F)cc2F)C(C)C)c1=O [Compound 11-46] | 100% | 100% | 100% | 90% | 100% | 100% | 90% | 90% | 100% | 100% | 100% | 100% | 90% | 100% | 60% | 100%
CC(C)N(C(=O)n1cnn(S(=O)(=O)C(C)C)c1=O)c1ccccc1 [Compound 11-48] | 90% | 80% | 80% | 90% | 90% | 70% | 90% | 70% | 90% | 80% | 80% | 90% | 70% | 100% | 40% | 90%
CC(C)N(C(=O)n1cnn(S(=O)(=O)C(C)C)c1=O)c1cccc(F)c1F [Compound 11-58] | 100% | 100% | 100% | 100% | 100% | 100% | 100% | 100% | 70% | 70% | 100% | 90% | 70% | 100% | 30% | 90%
CC(C)N(C(=O)n1cnn(S(=O)(=O)C(C)C)c1=O)c1ccc(F)cc1F [Compound 11-59] | 100% | 100% | 100% | 100% | 100% | 80% | 100% | 90% | 90% | 100% | 100% | 100% | 80% | 90% | 90% | 80%
CC(C)N(C(=O)n1cnn(S(=O)(=O)C(C)C)c1=O)c1c(F)cccc1F [Compound 11-61] | 100% | 100% | 80% | 100% | 100% | 100% | 100% | 80% | 90% | 80% | 100% | 100% | 70% | 100% | 70% | 100%
CC(C)N(C(=O)n1cnn(S(=O)(=O)C(C)C)c1=O)c1ccc(F)c(F)c1F [Compound 11-62] | 100% | 100% | 90% | 100% | 100% | 80% | 100% | 100% | 100% | 60% | 70% | 70% | 90% | 100% | 100% | 100%
CC(C)N(C(=O)n1cnn(S(=O)(=O)C(C)C)c1=O)c1c(F)cc(F)cc1F [Compound 11-63] | 100% | 100% | 100% | 100% | 100% | 80% | 100% | 100% | 90% | 90% | 100% | 100% | 70% | 100% | 60% | 100%
CC(C)N(C(=O)n1cnn(S(=O)(=O)C(C)C)c1=O)c1c(F)c(F)cc(F)c1F [Compound 11-64] | 100% | 100% | 90% | 100% | 100% | 80% | 90% | 100% | 60% | 60% | 100% | 100% | 60% | 100% | 60% | 90%
CC(C)N(C(=O)n1cnn(S(=O)(=O)C(C)C)c1=O)c1ccc(F)cc1Cl [Compound 11-66] | 90% | 80% | 80% | 90% | 90% | 80% | 80% | 90% | 90% | 80% | 80% | 90% | 80% | 90% | 90% | 80%
